Experimental data published in ChEMBL document CHEMBL3727348, “3-(aryl or heteroaryl) methyleneindolin-2-one derivatives as inhibitors of cancer stem cell pathway kinases for the treatment of cancer” (2014).

Key:
Format in all cases: functional, cell-based
FaDu [1] = experiment: Cytotoxic activity against human FADU cancer stem cells incubated for 72 hrs by Cell-titer-Glo luminescence assay
FaDu [2] = experiment: Cytotoxic activity against human FADU bulk cells incubated for 72 hrs by Cell-titer-Glo luminescence assay
A549 [3] = experiment: Cytotoxic activity against human A549 cancer stem cells incubated for 72 hrs by Cell-titer-Glo luminescence assay; conditions: A549, 72 h
ACHN = experiment: Cytotoxic activity against human ACHN bulk cells incubated for 72 hrs by Cell-titer-Glo luminescence assay
A549 [4] = experiment: Cytotoxic activity against human A549 bulk cells incubated for 72 hrs by Cell-titer-Glo luminescence assay; conditions: A549, 72 h

| Structure (SMILES) | IC50 (FaDu [1]) [µM] | IC50 (FaDu [2]) [µM] | IC50 (A549 [3]) [µM] | IC50 (ACHN) [µM] | IC50 (A549 [4]) [µM] |
| --- | --- | --- | --- | --- | --- |
| Cc1[nH]c(/C=C2\C(=O)Nc3ccc(-c4cnn(-c5ccccc5)c4C)cc32)c(C)c1C(=O)NCCN1CCCC1 | 1.31 | 5.79 |  |  |  |
| Cc1cc(C)c(/C=C2\C(=O)Nc3cc(-c4ccncc4)ccc32)[nH]1 |  | 18.4 | 0.98 |  |  |
| Cc1cc(C)c(/C=C2\C(=O)Nc3cc(-c4ccc5ccccc5n4)ccc32)[nH]1 |  | 14 |  |  |  |
| COc1ccc(-c2ccc3c(c2)/C(=C/c2[nH]c(C)cc2C)C(=O)N3)c(C)c1 |  | 19.8 |  | 24.8 |  |
| CCN(CC)CCNC(=O)c1c(C)[nH]c(/C=C2\C(=O)Nc3ccc(-c4cnc(-c5ccccc5)s4)cc32)c1C |  | 23.7 |  |  |  |
| Cc1cc(C)c(/C=C2\C(=O)Nc3ccc(-c4ccc(C(=O)c5ccccc5)cc4)cc32)[nH]1 |  | 22.4 |  | 21.8 |  |
| CCN(CC)CCN1CCCc2[nH]c(/C=C3\C(=O)Nc4ccc(-c5csc(-c6ccccc6)n5)cc43)c(C)c2C1=O |  | 5.31 |  |  | 18 |
| CCN(CC)CCNC(=O)c1c(C)[nH]c(/C=C2\C(=O)Nc3ccc(-c4cnc(-c5ccccc5)o4)cc32)c1C | 41.5 | 9.73 |  | 12.2 |  |
| O=C1Nc2ccc(-c3csc(-c4ccncc4)n3)cc2/C1=C/c1ccc(N2CCOCC2)cc1 |  | 17.5 |  |  |  |
| CCN(CC)CCNC(=O)c1c(C)[nH]c(/C=C2\C(=O)Nc3ccc(-c4csc(-c5ccc(Br)cc5)n4)cc32)c1C | 1.33 | 3.68 |  |  |  |
| CCN(CC)CCNC(=O)c1c(C)[nH]c(/C=C2\C(=O)Nc3ccc(C4CCN(c5ncccn5)CC4)cc32)c1C | 18.8 | 6.47 |  |  |  |
| Cc1cc(C)c(/C=C2\C(=O)Nc3cc(-c4cnc5ccccn45)ccc32)[nH]1 |  | 19.4 |  | 20.6 |  |
| CCN(CC)CCNC(=O)c1c(C)[nH]c(/C=C2\C(=O)Nc3ccc(-n4cc(-c5ccccc5)nn4)cc32)c1C | 3 | 6.58 |  | 7.16 |  |
| Cc1cc(C)c(/C=C2\C(=O)Nc3ccc(-c4nccc5ccccc45)cc32)[nH]1 |  | 23.5 |  |  | 18.4 |
| Cc1[nH]c(/C=C2\C(=O)Nc3ccc(-c4cnn(-c5ccccc5)c4C)cc32)c(C)c1C(=O)N1CCN(C)CC1 | 14.8 |  |  |  |  |
| CCOC(=O)CCc1cccc(-c2nc(-c3ccc4c(c3)/C(=C/c3[nH]c(C)c(C(=O)NCCN(CC)CC)c3C)C(=O)N4)cs2)c1 | 2.34 |  |  |  |  |
| Cc1cc(C)c(/C=C2\C(=O)Nc3cc(-c4cnc5ccnn5c4)ccc32)[nH]1 | 14.9 |  |  |  |  |
| Cc1[nH]c(/C=C2\C(=O)Nc3ccc(-c4ccc(-c5ccccc5)s4)cc32)c(C)c1C(=O)NCCN1CCCC1 | 1.64 | 4.44 |  |  |  |
| CCN(CC)CCNC(=O)c1c(C)[nH]c(/C=C2\C(=O)Nc3ccc(C4CCN(C5CCOCC5)CC4)cc32)c1C |  | 23.9 |  |  |  |
| CC(=O)N1CCC(N2CCC(c3ccc4c(c3)/C(=C/c3[nH]c(C)c(C(=O)N5CCN(C)CC5)c3C)C(=O)N4)CC2)CC1 | 15.6 | 23.2 |  |  |  |
| Cc1ccc(-c2nc(-c3ccc4c(c3)/C(=C/c3[nH]c(C)c(C(=O)N5CCOCC5)c3C)C(=O)N4)cs2)cc1 |  | 3.05 |  |  |  |
| Cc1cc(C)c(/C=C2\C(=O)Nc3ccc(-c4ccc5ccccc5n4)cc32)[nH]1 |  |  |  | 7.44 |  |
| Cc1cc(C)c(/C=C2\C(=O)Nc3ccc(-c4cnc5ccccc5n4)cc32)[nH]1 | 0.09 | 25.8 |  | 10.6 | 7.89 |

| Structure (SMILES) | IC50 (FaDu [1]) [µM] | IC50 (FaDu [2]) [µM] | IC50 (A549 [3]) [µM] | IC50 (ACHN) [µM] | IC50 (A549 [4]) [µM] |
| --- | --- | --- | --- | --- | --- |
| Cc1[nH]c(/C=C2\C(=O)Nc3ccc(-c4cnn(-c5ccccc5)c4C)cc32)c(C)c1C(=O)N1CCOCC1 | 37.2 | 6.76 |  |  |  |
| Cc1[nH]c(/C=C2\C(=O)Nc3ccc(-c4cnn(-c5ccccn5)c4)cc32)c(C)c1C(=O)N1CCOCC1 | 8.94 |  |  |  |  |
| CCN(CC)CCNC(=O)c1c(C)[nH]c(/C=C2\C(=O)Nc3ccc(-c4cn(-c5ccccc5)nn4)cc32)c1C | 2.9 | 6.74 |  | 4.73 | 4.88 |
| CCN(CC)CCNC(=O)c1c(C)[nH]c(/C=C2\C(=O)Nc3ccc(-c4oc(-c5ccccc5)nc4C)cc32)c1C | 18.2 |  |  |  |  |
| O=C1Nc2ccc(-c3csc(-c4ccccc4)n3)cc2/C1=C/c1ccc(C(=O)NCCN2CCOCC2)c(=O)[nH]1 | 33.7 |  |  |  |  |
| CCN(CC)CCNC(=O)c1c(C)[nH]c(/C=C2\C(=O)Nc3ccc(-c4ccc(-c5cccnc5)s4)cc32)c1C | 40.8 | 14.3 |  |  |  |
| CCN(CC)CCNC(=O)c1c(C)[nH]c(/C=C2\C(=O)Nc3ccc(-c4nnc(-c5ccccc5)s4)cc32)c1C | 0.23 | 2.15 |  |  | 48.9 |
| Cc1[nH]c(/C=C2\C(=O)Nc3ccc(-c4cnc(-c5ccccc5)o4)cc32)c(C)c1C(=O)N1CCN(C)CC1 | 9.35 | 12.1 |  |  |  |
| O=C1Nc2ccc(-c3csc(-c4ccncc4)n3)cc2/C1=C/c1cc2ccccc2[nH]1 | 3.07 |  |  |  |  |
| CCN(CC)CCNC(=O)c1c(C)[nH]c(/C=C2\C(=O)Nc3ccc(-c4nnc(-c5ccccc5)o4)cc32)c1C | 21.5 | 8.23 |  |  |  |
| Cc1[nH]c(/C=C2\C(=O)Nc3ccc(-c4ccnn4-c4ccccc4)cc32)c(C)c1C(=O)N1CCN(C)CC1 | 11.5 | 4.55 |  |  |  |
| Cc1cc(C)c(/C=C2\C(=O)Nc3cc(-c4ccc(-c5ccccc5)nc4)ccc32)[nH]1 | 18.2 |  |  |  |  |
| CCOC(=O)c1c(C)[nH]c(/C=C2\C(=O)Nc3ccc(-c4csc(-c5ccccc5)n4)cc32)c1C | 20.2 |  |  |  |  |
| O=C1Nc2ccc(-c3csc(-c4ccccc4)n3)cc2/C1=C/c1ccc(N2CCNCC2)cc1 |  | 2.59 |  |  | 5.79 |
| CN1CCN(C(=O)c2ccc(/C=C3\C(=O)Nc4ccc(-c5csc(-c6ccccc6)n5)cc43)[nH]c2=O)CC1 | 23.2 |  |  |  |  |
| COc1ccc(-c2ccc3c(c2)/C(=C/c2[nH]c(C)cc2C)C(=O)N3)nc1 |  |  |  |  | 0.07 |
| CCN(CC)CCNC(=O)c1c(C)[nH]c(/C=C2\C(=O)Nc3ccc(-c4nc(-c5ccccc5)n[nH]4)cc32)c1C | 2.8 | 6.16 |  |  |  |
| CCN(CC)CCNC(=O)c1c(C)[nH]c(/C=C2\C(=O)Nc3ccc(-c4cs/c(=N\c5ccccc5)n4C)cc32)c1C | 2.17 | 5.35 |  |  |  |
| Cc1cc(C)c(/C=C2\C(=O)Nc3ccc(-c4csc(-c5ccccc5)n4)cc32)[nH]1 | 6.49 | 7.87 |  | 5.31 |  |
| CCN(CC)CCNC(=O)c1c(C)[nH]c(/C=C2\C(=O)Nc3ccc(-c4csc(-c5ccccn5)n4)cc32)c1C |  | 46.9 |  |  |  |
| Cc1[nH]c(/C=C2\C(=O)Nc3ncc(-c4csc(-c5ccccc5)n4)cc32)c(C)c1C(=O)N1CCN(C)CC1 |  | 39.2 |  |  |  |
| O=C1Nc2ccc(-c3csc(-c4ccccc4)n3)cc2/C1=C/c1ccc(N2CCOCC2)cc1 |  | 35.5 |  |  |  |
| O=C1Nc2ccc(-c3csc(-c4ccccc4)n3)cc2/C1=C/c1[nH]c(C(=O)O)c2c1CCCC2 | 4.49 |  |  | 24.9 |  |

| Structure (SMILES) | IC50 (FaDu [1]) [µM] | IC50 (FaDu [2]) [µM] | IC50 (A549 [3]) [µM] | IC50 (ACHN) [µM] | IC50 (A549 [4]) [µM] |
| --- | --- | --- | --- | --- | --- |
| Cc1cc(C)c(/C=C2\C(=O)Nc3cc(-c4cccc(C#N)c4C)ccc32)[nH]1 | 39.1 |  |  |  |  |
| Cc1[nH]c(/C=C2\C(=O)Nc3ccc(-c4cnc(-c5ccccc5)[nH]4)cc32)c(C)c1C(=O)N1CCN(C)CC1 | 13.2 | 5.54 |  |  |  |
| Cc1[nH]c(/C=C2\C(=O)Nc3ccc(-c4ccnn4-c4ccc(C#N)cc4)cc32)c(C)c1C(=O)N1CCN(C)CC1 | 48.2 |  |  |  |  |
| CCN(CC)CCNC(=O)c1c(C)[nH]c(/C=C2\C(=O)Nc3ncc(-c4csc(-c5ccccc5)n4)cc32)c1C | 1.6 |  |  |  |  |
| CCN(CC)CCNC(=O)c1c(C)[nH]c(/C=C2\C(=O)Nc3ccc(-c4ccnn4-c4ccc(C#N)cc4)cc32)c1C | 4.96 | 17.3 |  |  |  |
| CCN(CC)CCNC(=O)c1c(C)[nH]c(/C=C2\C(=O)Nc3cnc(-c4csc(-c5ccccc5)n4)cc32)c1C | 4.75 | 11.2 |  |  |  |
| O=C1Nc2ccc(-c3csc(-c4ccncc4)n3)cc2/C1=C/c1ccc(N2CCNCC2)cc1 |  | 25.2 |  |  | 8.73 |
| Cc1cc(C)c(/C=C2\C(=O)Nc3ccc(-c4nc5ccccc5s4)cc32)[nH]1 |  | 26.8 |  | 14.7 | 16.1 |
| Cc1[nH]c(/C=C2\C(=O)Nc3ccc(-c4csc(-c5ccccc5)n4)cc32)c(C)c1CCC(=O)O |  |  | 1.65 |  |  |
| COC(=O)c1c(C)[nH]c(/C=C2\C(=O)Nc3ccc(-c4csc(-c5ccccc5)n4)cc32)c1C |  | 21.8 |  | 1.16 | 16.3 |
| CCN(CC)CCNC(=O)c1[nH]c(/C=C2\C(=O)Nc3ccc(-c4csc(-c5ccccc5)n4)cc32)c2c1CCCC2 |  |  |  | 9.91 |  |
| Cc1[nH]c(/C=C2\C(=O)Nc3ccc(-c4csc(-c5ccncc5)n4)cc32)c(C)c1CCC(=O)O |  |  |  | 14.6 |  |
| Cc1cc(C)c(/C=C2\C(=O)Nc3ccc(-c4cncnc4)cc32)[nH]1 |  |  |  | 12.8 | 20.8 |
| Cc1[nH]c(/C=C2\C(=O)Nc3ccc(-c4csc(C5CCNCC5)n4)cc32)c(C)c1C(=O)O | 5.62 |  |  |  |  |
| CCN(CC)CCNC(=O)c1c(C)[nH]c(/C=C2\C(=O)Nc3ccc(-c4csc(-c5cccc(Br)c5)n4)cc32)c1C | 7.82 | 24.8 |  |  |  |
| CCN(CC)CCNC(=O)c1c(C)[nH]c(/C=C2\C(=O)Nc3ccc(-c4cnc(-c5ccccc5)[nH]4)cc32)c1C |  | 5.34 |  | 20.6 |  |
| O=C1Nc2ccc(-c3csc(-c4ccccc4)n3)cc2/C1=C/c1cc2ccccc2[nH]1 |  | 49.3 |  |  |  |
| COc1cccnc1-c1ccc2c(c1)/C(=C/c1[nH]c(C)cc1C)C(=O)N2 |  | 33.2 |  |  |  |
| CCN(CC)CCNC(=O)c1ccc(/C=C2\C(=O)Nc3ccc(-c4csc(-c5ccccc5)n4)cc32)[nH]c1=O | 6.15 | 3.1 |  | 3.31 | 3.64 |
| Cc1[nH]c(/C=C2\C(=O)Nc3ccc(-c4ncc(-c5ccccc5)o4)cc32)c(C)c1C(=O)N1CCN(C)CC1 | 2.38 |  |  |  |  |
| CCN(CC)CCNC(=O)c1c(C)[nH]c(/C=C2\C(=O)Nc3cc(-c4ccc5cc[nH]c(=O)c5c4)ccc32)c1C |  | 23.9 |  |  |  |
| CCN(CC)CCNC(=O)c1c(C)[nH]c(/C=C2\C(=O)Nc3ccc(C4CCN(C5CCN(C(C)=O)CC5)CC4)cc32)c1C | 1 | 3.32 |  | 4.8 | 29.6 |
| CCN(CC)CCNC(=O)c1c(C)[nH]c(/C=C2\C(=O)Nc3ccc(C4CCN(c5ccccc5)CC4)cc32)c1C | 1.3 | 1.89 |  |  | 16 |
